From ChEMBL document CHEMBL6127119 (J Med Chem, 2024)
Values after ≈ are worked out from the molar mass of the structure shown.

Tests used:
Assay type in all cases: functional
Details in all cases: time 16-24 hrs
Enterococcus faecium [1] = assay: Potency index, ratio of Vancomycin MIC to test compound MIC for vancomycin-resistant Enterococcus faecium incubated for 16 to 24 hrs by CLSI based broth microdilution method
Staphylococcus aureus [2] = assay: Antibacterial activity against vancomycin-intermediate Staphylococcus aureus incubated for 16 to 24 hrs by CLSI based broth microdilution method
Enterococcus faecium [3] = assay: Antibacterial activity against vancomycin-resistant Enterococcus faecium harboring VanM phenotype incubated for 16 to 24 hrs by CLSI based broth microdilution method
Acinetobacter baumannii [4] = assay: Potency index, ratio of Vancomycin MIC to test compound MIC for Carbapenem-resistant Acinetobacter baumannii clinical isolate incubated for 16 to 24 hrs by CLSI based broth microdilution method
Pseudomonas aeruginosa = assay: Antibacterial activity against Pseudomonas aeruginosa PAO1 incubated for 16 to 24 hrs by CLSI based broth microdilution method
Acinetobacter baumannii [5] = assay: Potency index, ratio of Norvancomycin MIC to test compound MIC for Carbapenem-resistant Acinetobacter baumannii clinical isolate incubated for 16 to 24 hrs by CLSI based broth microdilution method
Escherichia coli [6] = assay: Antibacterial activity against Escherichia coli AB1157 incubated for 16 to 24 hrs by CLSI based broth microdilution method
Escherichia coli [7] = assay: Potency index, ratio of Norvancomycin MIC to test compound MIC for Escherichia coli […] incubated for 16 to 24 hrs by CLSI based broth microdilution method
Klebsiella pneumoniae = assay: Antibacterial activity against Klebsiella pneumoniae clinical isolate incubated for 16 to 24 hrs by CLSI based broth microdilution method
Escherichia coli [8] = assay: Potency index, ratio of Vancomycin MIC to test compound MIC for Escherichia coli […] incubated for 16 to 24 hrs by CLSI based broth microdilution method
Enterococcus faecium [9] = assay: Antibacterial activity against vancomycin-resistant Enterococcus faecium harboring VanA phenotype incubated for 16 to 24 hrs by CLSI based broth microdilution method
Enterococcus faecium [10] = assay: Potency index, ratio of Norvancomycin MIC to test compound MIC for vancomycin-resistant Enterococcus faecium incubated for 16 to 24 hrs by CLSI based broth microdilution method
Staphylococcus aureus [11] = assay: Antibacterial activity against methicillin-susceptible Staphylococcus aureus incubated for 16 to 24 hrs by CLSI based broth microdilution method
Enterococcus faecium [12] = assay: Antibacterial activity against vancomycin-resistant Enterococcus faecium harboring VanB phenotype incubated for 16 to 24 hrs by CLSI based broth microdilution method
Staphylococcus aureus [13] = assay: Potency index, ratio of Norvancomycin MIC to test compound MIC for vancomycin-intermediate Staphylococcus aureus incubated for 16 to 24 hrs by CLSI based broth microdilution method
Staphylococcus aureus [14] = assay: Potency index, ratio of Vancomycin MIC to test compound MIC for vancomycin-intermediate Staphylococcus aureus incubated for 16 to 24 hrs by CLSI based broth microdilution method
Acinetobacter baumannii [15] = assay: Antibacterial activity against Carbapenem-resistant Acinetobacter baumannii clinical isolate incubated for 16 to 24 hrs by CLSI based broth microdilution method
Staphylococcus aureus [16] = assay: Antibacterial activity against methicillin-resistant Staphylococcus aureus clinical isolate incubated for 16 to 24 hrs by CLSI based broth microdilution method
Enterococcus faecalis = assay: Antibacterial activity against Enterococcus faecalis clinical isolate incubated for 16 to 24 hrs by CLSI based broth microdilution method
[17] = tested on: Staphylococcus epidermidis; assay: Antibacterial activity against methicillin-resistant Staphylococcus epidermidis clinical isolate incubated for 16 to 24 hrs by CLSI based broth microdilution method
[18] = tested on: Staphylococcus haemolyticus; assay: Antibacterial activity against methicillin-resistant Staphylococcus haemolyticus clinical isolate incubated for 16 to 24 hrs by CLSI based broth microdilution method
Enterococcus faecium [19] = assay: Antibacterial activity against Enterococcus faecium clinical isolate incubated for 16 to 24 hrs by CLSI based broth microdilution method
Staphylococcus hominis = assay: Antibacterial activity against methicillin-resistant Staphylococcus hominis clinical isolate incubated for 16 to 24 hrs by CLSI based broth microdilution method
Enterococcus faecium [20] = assay: Antibacterial activity against vancomycin-resistant Enterococcus faecium harboring VanA phenotype clinical isolate incubated for 16 to 24 hrs by CLSI based broth microdilution method

Structure (SMILES) | Ratio (Enterococcus faecium [1]) | MIC (Staphylococcus aureus [2]) [µg/mL] | MIC (Enterococcus faecium [3]) [µg/mL] | Ratio (Acinetobacter baumannii [4]) | MIC (Pseudomonas aeruginosa) [µg/mL] | Ratio (Acinetobacter baumannii [5]) | MIC (Escherichia coli [6]) [µg/mL] | Ratio (Escherichia coli [7]) | MIC (Klebsiella pneumoniae) [µg/mL] | Ratio (Escherichia coli [8]) | MIC (Enterococcus faecium [9]) [µg/mL] | Ratio (Enterococcus faecium [10]) | MIC (Staphylococcus aureus [11]) [µg/mL] | MIC (Enterococcus faecium [12]) [µg/mL] | Ratio (Staphylococcus aureus [13]) | Ratio (Staphylococcus aureus [14]) | MIC (Acinetobacter baumannii [15]) [µg/mL] | MIC (Staphylococcus aureus [16]) [µg/mL] | MIC (Enterococcus faecalis) [µg/mL] | MIC [18] [µg/mL] | other results
CC(C)C[C@@H](N)C(=O)N[C@H]1C(=O)N[C@@H](CC(N)=O)C(=O)N[C@H]2C(=O)N[C@H]3C(=O)N[C@H](C(=O)N[C@H](C(=O)NCc4ccc(-c5cccc(CNC(=N)N)c5)cc4)c4cc(O)cc(O)c4-c4cc3ccc4O)[C@H](O)c3ccc(c(Cl)c3)Oc3cc2cc(c3O[C@@H]2O[C@H](CO)[C@@H](O)[C@H](O)[C@H]2O[C@H]2C[C@](C)(N)[C@H](O)[C@H](C)O2)Oc2ccc(cc2Cl)[C@H]1O | 2 | 0.25 (≈ 0.15 µM) | 1 (≈ 0.598 µM) | 2 | 128 (≈ 76.6 µM) | 2 | 16 (≈ 9.57 µM) | 2 | > 128 | 2 | 2 (≈ 1.2 µM) | 2 | ≤ 0.063 | 2 (≈ 1.2 µM) | 2 | 2 | 64 (≈ 38.3 µM) |  |  |  | 
CN[C@H](CC(C)C)C(=O)N[C@H]1C(=O)N[C@@H](CC(N)=O)C(=O)N[C@H]2C(=O)N[C@H]3C(=O)N[C@H](C(=O)N[C@H](C(=O)NCc4ccc(-c5ccc(CCNC(=N)N)cc5)cc4)c4cc(O)cc(O)c4-c4cc3ccc4O)[C@H](O)c3ccc(c(Cl)c3)Oc3cc2cc(c3O[C@@H]2O[C@H](CO)[C@@H](O)[C@H](O)[C@H]2O[C@H]2C[C@](C)(N)[C@H](O)[C@H](C)O2)Oc2ccc(cc2Cl)[C@H]1O | 2 | 0.5 (≈ 0.294 µM) | 2 (≈ 1.18 µM) | 2 |  | 2 | 8 (≈ 4.71 µM) | 2 | > 128 | 2 | 2 (≈ 1.18 µM) | 2 | 0.25 (≈ 0.147 µM) | 1 (≈ 0.588 µM) | 2 | 2 | 16 (≈ 9.41 µM) |  |  |  | 
CN[C@H](CC(C)C)C(=O)N[C@H]1C(=O)N[C@@H](CC(N)=O)C(=O)N[C@H]2C(=O)N[C@H]3C(=O)N[C@H](C(=O)N[C@H](C(=O)O)c4cc(O)cc(O)c4-c4cc3ccc4O)[C@H](O[C@H]3C[C@](C)(N)[C@@H](O)[C@H](C)O3)c3ccc(c(Cl)c3)Oc3cc2cc(c3O[C@@H]2O[C@H](CO)[C@@H](O)[C@H](O)[C@H]2O[C@H]2C[C@](C)(NCc3ccc(-c4ccc(Cl)cc4)cc3)[C@@H](O)[C@H](C)O2)Oc2ccc(cc2Cl)[C@H]1O [ORITAVANCIN] |  |  |  |  |  |  |  |  |  |  |  |  |  |  |  |  |  | 0.12 (≈ 0.0669 µM) | ≤ 0.03 | 0.06 (≈ 0.0335 µM) | MIC [17]: 0.12 µg/mL (≈ 0.0669 µM); MIC (Enterococcus faecium [19]): ≤ 0.03 µg/mL; MIC (Staphylococcus hominis): 0.12 µg/mL (≈ 0.0669 µM)
CN[C@H](CC(C)C)C(=O)N[C@H]1C(=O)N[C@@H](CC(N)=O)C(=O)N[C@H]2C(=O)N[C@H]3C(=O)N[C@H](C(=O)N[C@H](C(=O)O)c4cc(O)cc(O)c4-c4cc3ccc4O)[C@H](O)c3ccc(c(Cl)c3)Oc3cc2cc(c3O[C@@H]2O[C@H](CO)[C@@H](O)[C@H](O)[C@H]2O[C@H]2C[C@](C)(N)[C@H](O)[C@H](C)O2)Oc2ccc(cc2Cl)[C@H]1O [VANCOMYCIN] |  |  |  |  |  |  |  |  |  |  |  |  |  |  |  |  |  | 0.25 (≈ 0.173 µM) | ≤ 0.03 | 1 (≈ 0.69 µM) | MIC (Enterococcus faecium [20]): > 64 µg/mL; MIC (Staphylococcus hominis): 1 µg/mL (≈ 0.69 µM)
CC(C)C[C@@H](N)C(=O)N[C@H]1C(=O)N[C@@H](CC(N)=O)C(=O)N[C@H]2C(=O)N[C@H]3C(=O)N[C@H](C(=O)N[C@H](C(=O)NCc4ccc(-c5ccc(CCNC(=N)N)cc5)cc4)c4cc(O)cc(O)c4-c4cc3ccc4O)[C@H](O)c3ccc(c(Cl)c3)Oc3cc2cc(c3O[C@@H]2O[C@H](CO)[C@@H](O)[C@H](O)[C@H]2O[C@H]2C[C@](C)(N)[C@H](O)[C@H](C)O2)Oc2ccc(cc2Cl)[C@H]1O | 2 | 0.5 (≈ 0.297 µM) | 2 (≈ 1.19 µM) | 2 | > 128 | 2 | 8 (≈ 4.75 µM) | 2 | > 128 | 2 | 4 (≈ 2.37 µM) | 2 | 0.125 (≈ 0.0742 µM) | 4 (≈ 2.37 µM) | 2 | 2 | 64 (≈ 38 µM) |  |  |  | 
